Molecules are shown by their SMILES.

Assay [1] deals with T1, purified recombinant human PI3K enzyme δ (Homo sapiens, UniProt O00329).
T1 construct: purchased Invitrogen, USA
In words: Inhibition of PI3-Kinase enzymatic activity (HTRF enzyme assay), δ. The assay is classed as biochemical. The settings on record: 1 μM compound; PI3K δ 50 ng/well; PIP2 10 μM; ATP 200 μM; read-out: Percentage inhibition of PI3K activity, δ. As to the method:
(§1) Inhibition of PI3-Kinase enzymatic activity was determined using a homogeneous time-resolved fluorescence (HTRF) kit from Eurofins. 1 μM of Compounds of present invention were premixed with DMSO. The experiment was initiated by mixing 1.0% DMSO as vehicle/compounds with purified recombinant human PI3K enzyme {δ (50 ng/well); γ (100 ng/well)} (Invitrogen, USA) and substrate (PIP2, 10 μM) in the wells and incubation for 15 min at room temperature. There after ATP was added (δ at 200 μM, and γ at 50 μM) in to the wells containing reaction mixture, followed by re-incubation for 30 minutes at room temperature. Reaction was terminated by addition of a stopping solution and was further incubated for 4 hours at room temperature before reading using Envision multimode reader (Perkin Elmer). Percentage inhibition of PI3K activity was calculated by determining ratio of specific europium 665 nm energy transfer signal to reference 615 nm signals.

Assay [2] concerns the target T2, purified recombinant human PI3K enzyme γ (Homo sapiens, UniProt P48736).
T2 construct: purchased Invitrogen, USA
In words: Inhibition of PI3-Kinase enzymatic activity (HTRF enzyme assay), γ. The assay is classed as biochemical. The following applies: 1 μM compound; PI3K γ 100 ng/well; PIP2 10 μM; ATP 50 μM; read-out: Percentage inhibition of PI3K activity, γ. As to the method: as §1

T1 sequence (O00329 whole entry): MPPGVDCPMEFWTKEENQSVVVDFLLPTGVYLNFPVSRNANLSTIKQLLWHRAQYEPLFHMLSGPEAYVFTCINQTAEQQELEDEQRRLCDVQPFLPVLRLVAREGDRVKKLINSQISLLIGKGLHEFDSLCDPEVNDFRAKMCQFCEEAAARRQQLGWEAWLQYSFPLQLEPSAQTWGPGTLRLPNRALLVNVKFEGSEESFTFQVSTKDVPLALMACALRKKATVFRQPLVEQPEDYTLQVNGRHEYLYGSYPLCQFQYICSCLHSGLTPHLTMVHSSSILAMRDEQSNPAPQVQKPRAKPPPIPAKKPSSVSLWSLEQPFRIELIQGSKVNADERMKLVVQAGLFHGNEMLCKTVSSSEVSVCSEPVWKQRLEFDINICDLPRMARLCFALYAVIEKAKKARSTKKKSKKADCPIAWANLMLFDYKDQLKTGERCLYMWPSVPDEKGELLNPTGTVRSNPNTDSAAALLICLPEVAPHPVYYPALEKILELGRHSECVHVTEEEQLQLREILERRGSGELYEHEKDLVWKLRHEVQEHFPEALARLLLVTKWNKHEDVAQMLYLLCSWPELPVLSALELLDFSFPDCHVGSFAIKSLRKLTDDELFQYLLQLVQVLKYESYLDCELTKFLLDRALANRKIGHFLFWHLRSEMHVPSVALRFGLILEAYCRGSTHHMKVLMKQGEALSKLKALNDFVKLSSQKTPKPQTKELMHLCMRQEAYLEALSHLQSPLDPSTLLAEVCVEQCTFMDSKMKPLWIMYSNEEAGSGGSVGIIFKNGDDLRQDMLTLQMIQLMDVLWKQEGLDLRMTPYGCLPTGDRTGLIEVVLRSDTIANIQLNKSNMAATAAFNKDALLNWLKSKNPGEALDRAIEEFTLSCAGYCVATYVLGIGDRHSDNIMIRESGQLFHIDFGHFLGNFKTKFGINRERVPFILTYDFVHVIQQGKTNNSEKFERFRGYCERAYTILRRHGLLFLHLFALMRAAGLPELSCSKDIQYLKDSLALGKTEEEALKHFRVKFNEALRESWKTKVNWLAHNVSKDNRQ
T1 sequence (P27986 whole entry partner): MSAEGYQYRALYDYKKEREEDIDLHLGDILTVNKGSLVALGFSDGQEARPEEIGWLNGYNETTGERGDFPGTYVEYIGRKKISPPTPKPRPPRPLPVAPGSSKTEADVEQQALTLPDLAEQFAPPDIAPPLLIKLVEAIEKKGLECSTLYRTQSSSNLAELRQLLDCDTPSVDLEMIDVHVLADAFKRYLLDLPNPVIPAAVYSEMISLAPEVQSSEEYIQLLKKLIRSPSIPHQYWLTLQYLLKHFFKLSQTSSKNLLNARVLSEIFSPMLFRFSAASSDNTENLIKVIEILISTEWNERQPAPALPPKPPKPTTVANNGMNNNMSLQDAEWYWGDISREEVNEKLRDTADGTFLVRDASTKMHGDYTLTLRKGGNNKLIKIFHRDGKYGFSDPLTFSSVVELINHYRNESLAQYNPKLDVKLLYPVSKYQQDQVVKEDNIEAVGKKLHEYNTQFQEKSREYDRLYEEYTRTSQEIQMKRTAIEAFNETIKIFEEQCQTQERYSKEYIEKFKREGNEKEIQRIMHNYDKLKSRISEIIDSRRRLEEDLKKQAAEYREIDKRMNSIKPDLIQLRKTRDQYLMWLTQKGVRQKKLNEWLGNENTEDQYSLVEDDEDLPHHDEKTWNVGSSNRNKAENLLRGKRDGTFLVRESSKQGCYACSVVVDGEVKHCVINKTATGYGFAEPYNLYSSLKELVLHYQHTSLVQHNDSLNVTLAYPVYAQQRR
T2 sequence (P48736 whole entry): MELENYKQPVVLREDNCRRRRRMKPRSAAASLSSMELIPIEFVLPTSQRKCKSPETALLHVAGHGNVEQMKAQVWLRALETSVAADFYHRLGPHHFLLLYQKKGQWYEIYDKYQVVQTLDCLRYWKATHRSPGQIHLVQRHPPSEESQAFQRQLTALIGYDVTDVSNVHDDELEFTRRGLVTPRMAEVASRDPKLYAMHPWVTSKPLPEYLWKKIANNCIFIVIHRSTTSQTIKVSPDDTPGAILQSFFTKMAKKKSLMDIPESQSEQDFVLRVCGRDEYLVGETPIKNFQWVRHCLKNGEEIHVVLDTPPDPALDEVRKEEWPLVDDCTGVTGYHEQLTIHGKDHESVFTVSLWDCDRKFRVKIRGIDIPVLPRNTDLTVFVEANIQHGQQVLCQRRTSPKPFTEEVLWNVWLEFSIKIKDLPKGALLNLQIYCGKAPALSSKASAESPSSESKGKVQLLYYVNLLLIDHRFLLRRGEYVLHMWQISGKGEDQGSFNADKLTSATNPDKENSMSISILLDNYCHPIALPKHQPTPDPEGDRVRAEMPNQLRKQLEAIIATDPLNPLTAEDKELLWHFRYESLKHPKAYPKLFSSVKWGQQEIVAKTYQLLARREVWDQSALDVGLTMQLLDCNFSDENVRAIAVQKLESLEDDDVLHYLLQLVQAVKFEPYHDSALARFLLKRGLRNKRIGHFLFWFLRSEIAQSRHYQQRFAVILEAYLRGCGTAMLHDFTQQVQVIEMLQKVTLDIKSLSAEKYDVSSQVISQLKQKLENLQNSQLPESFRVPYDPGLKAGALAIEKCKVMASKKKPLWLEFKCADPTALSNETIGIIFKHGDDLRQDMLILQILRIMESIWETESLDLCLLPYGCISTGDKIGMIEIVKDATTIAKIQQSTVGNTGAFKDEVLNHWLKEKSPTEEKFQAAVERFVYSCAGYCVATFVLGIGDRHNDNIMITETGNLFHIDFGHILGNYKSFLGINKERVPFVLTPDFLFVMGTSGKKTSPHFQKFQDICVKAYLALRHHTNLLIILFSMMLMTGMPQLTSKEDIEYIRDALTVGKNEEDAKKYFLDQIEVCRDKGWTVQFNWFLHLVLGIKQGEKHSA

Regarding `Cc1ccc(C)n1-n1c(Cn2nc(-c3ccc(O)c4c3CC(C)(C)O4)c3c(N)ncnc32)nc2cccc(C#CC3CC3)c2c1=O` [compound 43, 2-{[4-amino-3-(7-hydroxy-2,2-dimethyl-2,3-dihydro-1-benzofuran-4-yl)-1H-pyrazolo[3,4-d]pyrimidin-1-yl]methyl}-5-(cyclopropylethynyl)-3-(2,5-dimethyl-1H-pyrrol-1-yl)quinazolin-4(3H)-one], the inhibition at 1 µM in assay [1] and in assay [2] was 80 to 100% in each case.

As to `CCn1cc(-c2cccc3nc(Cn4nc(-c5ccc(O)c6c5CC(C)(C)O6)c5c(N)ncnc54)n(-n4cccc4)c(=O)c23)cn1` [compound 45, 2-{[4-amino-3-(7-hydroxy-2,2-dimethyl-2,3-dihydro-1-benzofuran-4-yl)-1H-pyrazolo[3,4-d]pyrimidin-1-yl]methyl}-5-(1-ethyl-1H-pyrazol-4-yl)-3-(1H-pyrrol-1-yl)quinazolin-4(3H)-one], the inhibition (in general, the share of the control response that was lost under treatment) at 1 µM in assay [1] is 80 to 100%; in assay [2], 60 to 80%.

On to `CC1(C)Cc2c(-c3nn(Cc4nc5cccc(C#CC6CC6)c5c(=O)n4-n4cccc4)c4ncnc(N)c34)ccc(O)c2O1` [compound 48, 2-{[4-amino-3-(7-hydroxy-2,2-dimethyl-2,3-dihydro-1-benzofuran-4-yl)-1H-pyrazolo[3,4-d]pyrimidin-1-yl]methyl}-5-(cyclopropylethynyl)-3-(1H-pyrrol-1-yl)quinazolin-4(3H)-one], for which the inhibition at 1 µM in assay [1] and in assay [2] was 80 to 100% in each case.

For `Cc1ccccc1C1(n2c(Cn3nc(-c4ccc(O)c5c4CC(C)(C)O5)c4c(N)ncnc43)nc3cccc(Cl)c3c2=O)CC1` [compound 55, 2-{[4-amino-3-(7-hydroxy-2,2-dimethyl-2,3-dihydro-1-benzofuran-4-yl)-1H-pyrazolo[3,4-d]pyrimidin-1-yl]methyl}-5-chloro-3-[1-(2-methylphenyl)cyclopropyl]quinazolin-4(3H)-one], the inhibition at 1 µM in assay [1] was 80 to 100%; in assay [2], 60 to 80%.

Consider `Cc1ccccc1C1(n2c(Cn3nc(-c4ccc(O)c5c4CC(C)(C)O5)c4c(N)ncnc43)nc3cccc(C)c3c2=O)CC1` [compound 56, 2-{[4-amino-3-(7-hydroxy-2,2-dimethyl-2,3-dihydro-1-benzofuran-4-yl)-1H-pyrazolo[3,4-d]pyrimidin-1-yl]methyl}-5-methyl-3-[1-(2-methylphenyl)cyclopropyl]quinazolin-4(3H)-one], for which the inhibition at 1 µM in assay [1] lay within 80 to 100%; in assay [2], 60 to 80%.

As to `Cc1ccc(C)n1-n1c(Cn2nc(-c3ccc(O)c4c3CC(C)(C)O4)c3c(N)ncnc32)nc2cccc(C#CCN3CCN(C)CC3)c2c1=O` [compound 57, 2-{[4-amino-3-(7-hydroxy-2,2-dimethyl-2,3-dihydro-1-benzofuran-4-yl)-1H-pyrazolo[3,4-d]pyrimidin-1-yl]methyl}-3-(2,5-dimethyl-1H-pyrrol-1-yl)-5-[3-(4-methylpiperazin-1-yl)prop-1-yn-1-yl]quinazolin-4(3H)-one], the values for the inhibition at 1 µM in assay [1] and in assay [2] were 80 to 100% and 60 to 80%, respectively.

Turning to `CC1(C)Cc2c(-c3nn(Cc4nc5cccc(C#CCN6CCNC(=O)C6)c5c(=O)n4-n4cccc4)c4ncnc(N)c34)ccc(O)c2O1` [compound 58, 2-{[4-amino-3-(7-hydroxy-2,2-dimethyl-2,3-dihydro-1-benzofuran-4-yl)-1H-pyrazolo[3,4-d]pyrimidin-1-yl]methyl}-5-[3-(3-oxopiperazin-1-yl)prop-1-yn-1-yl]-3-(1H-pyrrol-1-yl)quinazolin-4(3H)-one], the inhibition at 1 µM in assay [1] and in assay [2] was 80 to 100% each time.

Turning to `Cc1ccccc1C1(n2c(Cn3nc(-c4ccc(O)c5c4CC(C)(C)O5)c4c(N)ncnc43)nc3cccc(-c4ccnn4C)c3c2=O)CC1` [compound 59, 2-{[4-amino-3-(7-hydroxy-2,2-dimethyl-2,3-dihydro-1-benzofuran-4-yl)-1H-pyrazolo[3,4-d]pyrimidin-1-yl]methyl}-3-[1-(2-methylphenyl)cyclopropyl]-5-(1-methyl-1H-pyrazol-5-yl)quinazolin-4(3H)-one], the inhibition at 1 µM in assay [1] is 80 to 100%; in assay [2], 60 to 80%.

With `Cc1cccc2nc(Cn3nc(-c4ccc(O)c5c4CC(C)(C)O5)c4c(N)ncnc43)n(C3(c4cccs4)CC3)c(=O)c12` [compound 60, 2-{[4-amino-3-(7-hydroxy-2,2-dimethyl-2,3-dihydro-1-benzofuran-4-yl)-1H-pyrazolo[3,4-d]pyrimidin-1-yl]methyl}-5-methyl-3-[1-(thiophen-2-yl)cyclopropyl]quinazolin-4(3H)-one], the inhibition at 1 µM lay in the range of 80 to 100% in assay [1] and 60 to 80% in assay [2].

For `Cc1ccc(C)n1-n1c(Cn2nc(-c3ccc(O)c4c3CC(C)(C)O4)c3c(N)ncnc32)nc2cccc(-c3cnn(C)c3)c2c1=O` [compound 62, 2-{[4-amino-3-(7-hydroxy-2,2-dimethyl-2,3-dihydro-1-benzofuran-4-yl)-1H-pyrazolo[3,4-d]pyrimidin-1-yl]methyl}-3-(2,5-dimethyl-1H-pyrrol-1-yl)-5-(1-methyl-1H-pyrazol-4-yl)quinazolin-4(3H)-one], the inhibition at 1 µM in assay [1] was 80 to 100%; in assay [2], 60 to 80%.

For `Cc1ccc(C)n1-n1c(Cn2nc(-c3ccc(O)c4c3CC(C)(C)O4)c3c(N)ncnc32)nc2cccc(C#Cc3cncn3C)c2c1=O` [compound 67, 2-{[4-amino-3-(7-hydroxy-2,2-dimethyl-2,3-dihydro-1-benzofuran-4-yl)-1H-pyrazolo[3,4-d]pyrimidin-1-yl]methyl}-3-(2,5-dimethyl-1H-pyrrol-1-yl)-5-[(1-methyl-1H-imidazol-5-yl)ethynyl]quinazolin-4(3H)-one], the inhibition at 1 µM was 80 to 100% in assay [1] and less than 20% in assay [2].

For `Cc1ccc(C)n1-n1c(Cn2nc(-c3ccc(O)c4c3CC(C)(C)O4)c3c(N)ncnc32)nc2cccc(C#CCN3CCNC(=O)C3)c2c1=O` [compound 68, 2-{[4-amino-3-(7-hydroxy-2,2-dimethyl-2,3-dihydro-1-benzofuran-4-yl)-1H-pyrazolo[3,4-d]pyrimidin-1-yl]methyl}-3-(2,5-dimethyl-1H-pyrrol-1-yl)-5-[3-(3-oxopiperazin-1-yl)prop-1-yn-1-yl]quinazolin-4(3H)-one], the inhibition at 1 µM in assay [1] and in assay [2] was 80 to 100% throughout.

As for `Cn1cc(-c2cccc3nc(Cn4nc(-c5ccc(O)c6c5CC(C)(C)O6)c5c(N)ncnc54)n(C4(c5ccsc5)CC4)c(=O)c23)cn1` [compound 69, 2-{[4-amino-3-(7-hydroxy-2,2-dimethyl-2,3-dihydro-1-benzofuran-4-yl)-1H-pyrazolo[3,4-d]pyrimidin-1-yl]methyl}-5-(1-methyl-1H-pyrazol-4-yl)-3-[1-(thiophen-3-yl)cyclopropyl]quinazolin-4(3H)-one], the inhibition at 1 µM was 80 to 100% in assay [1] and 60 to 80% in assay [2].

On to `Cn1cccc1-c1cccc2nc(Cn3nc(-c4ccc(O)c5c4CC(C)(C)O5)c4c(N)ncnc43)n(-n3cccc3)c(=O)c12` [compound 71, 2-{[4-amino-3-(7-hydroxy-2,2-dimethyl-2,3-dihydro-1-benzofuran-4-yl)-1H-pyrazolo[3,4-d]pyrimidin-1-yl]methyl}-5-(1-methyl-1H-pyrrol-2-yl)-3-(1H-pyrrol-1-yl)quinazolin-4(3H)-one], for which the inhibition at 1 µM in assay [1] and in assay [2] was 80 to 100% throughout.

On to `CC1(C)Cc2c(-c3nn(Cc4nc5cccc(C#CCN6CCOCC6)c5c(=O)n4C4(c5ccsc5)CC4)c4ncnc(N)c34)ccc(O)c2O1` [compound 72, 2-{[4-amino-3-(7-hydroxy-2,2-dimethyl-2,3-dihydro-1-benzofuran-4-yl)-1H-pyrazolo[3,4-d]pyrimidin-1-yl]methyl}-5-[3-(morpholin-4-yl)prop-1-yn-1-yl]-3-[1-(thiophen-3-yl)cyclopropyl]quinazolin-4(3H)-one], for which the inhibition at 1 µM in assay [1] and in assay [2] was 80 to 100% each time.

On to `Cn1cccc1-c1cccc2nc(Cn3nc(-c4ccc(O)c5c4CC(C)(C)O5)c4c(N)ncnc43)n(C3(c4ccsc4)CC3)c(=O)c12` [compound 75, 2-{[4-amino-3-(7-hydroxy-2,2-dimethyl-2,3-dihydro-1-benzofuran-4-yl)-1H-pyrazolo[3,4-d]pyrimidin-1-yl]methyl}-5-(1-methyl-1H-pyrrol-2-yl)-3-[1-(thiophen-3-yl)cyclopropyl]quinazolin-4(3H)-one], for which the inhibition at 1 µM in assay [1] and in assay [2] was 80 to 100% throughout.

In the case of `CC1(C)Cc2c(-c3nn(Cc4nc5cccc(C#CC6CC6)c5c(=O)n4C4(c5ccsc5)CC4)c4ncnc(N)c34)ccc(O)c2O1` [compound 76, 2-{[4-amino-3-(7-hydroxy-2,2-dimethyl-2,3-dihydro-1-benzofuran-4-yl)-1H-pyrazolo[3,4-d]pyrimidin-1-yl]methyl}-5-(cyclopropylethynyl)-3-[1-(thiophen-3-yl)cyclopropyl]quinazolin-4(3H)-one], the inhibition at 1 µM in assay [1] and in assay [2] was 80 to 100% each time.

`Cc1ccc(C)n1-n1c(Cn2nc(-c3ccc(O)c4c3CC(C)(C)O4)c3c(N)ncnc32)nc2cccc(-c3cccn3C)c2c1=O` [compound 77, 2-{[4-amino-3-(7-hydroxy-2,2-dimethyl-2,3-dihydro-1-benzofuran-4-yl)-1H-pyrazolo[3,4-d]pyrimidin-1-yl]methyl}-3-(2,5-dimethyl-1H-pyrrol-1-yl)-5-(1-methyl-1H-pyrrol-2-yl)quinazolin-4(3H)-one]: the inhibition at 1 µM in assay [1] and in assay [2] was 80 to 100% in each case.

Values taken from patent US20190127381A1, “SUBSTITUTED FUSED PYRIMIDINONE COMPOUNDS” (TORRENT PHARMACEUTICALS LIMITED, priority 2016, published 2019).
